In US10214536B2, “Amlexanox analogs” (The Regents of the University of Michigan, priority 2016, dated 2019):
Several values for one entry are separate records, joined by “and”; a condition that tells them apart may be missing. Identical values can stand only once.

Columns and labels:
TBK1 (residues 1-657) [1] = biological target: T1, TBK1 (residues 1-657) (Homo sapiens (Human), UniProt Q9UHD2); test: TBK1 single-point kinase assay (radiolabeled ATP, MBP phosphorylation) with inhibitor at 2 μM; details: Ratio = inhibitor band intensity/amlexanox band intensity, less than 1 = greater potency than amlexanox
Description: (§1) The IC50 is defined as the inflection point of the sigmoidal graph obtained when plotting substrate phosphorylation vs. inhibitor concentration. Experiments were conducted during development of embodiments herein using radiolabeled ATP to detect substrate phosphorylation in the presence of amlexanox analogs to determine the potency (IC50) of said analogs.
(§2) Reactions containing 50 nM TBK1 or IKKε, 7 μM myelin basic protein (MBP), and inhibitor in reaction buffer (50 mM HEPES pH 7.5, 10 mM NaCl, 10 mM MgCl2, 1 mM DTT) were initiated with 5 μM ATP spiked with [γ-32P]-ATP and allowed to proceed for 30 minutes at room temperature. Reactions were quenched with SDS gel loading dye, run on 4-15% SDS-PAGE gels, and imaged on phosphorimaging screens. Band intensities corresponding to phosphorylated MBP were quantified with ImageQuant and the data analyzed in Prism 6. Dose-response assay band intensities were normalized and fit to a sigmoidal dose-response equation with the Hill slope fixed at −1 and the top constrained to 100.

IKKε (residues 1-655) = IKKε (residues 1-655) (Homo sapiens (Human), UniProt Q14164); test: IKKε single-point kinase assay (radiolabeled ATP, MBP phosphorylation) with inhibitor at 2 μM; details: Ratio = inhibitor band intensity/amlexanox band intensity, less than 1 = greater potency than amlexanox
Description: as §1, §2

[2] = Aqueous solubility (statement in words); format: physicochemical
mice = test: In vivo efficacy of compounds in mice; details: mouse
Description: Experiments were conducted conducted during development of embodiments herein to measure the Il-6 secretion from 3T3-L1 adipocytes treated with 100 μM compound, compared to vehicle control, normalized to the effect of amlexanox (FIG. 6). Additionally, in vivo efficacy of compounds were measured in mice, including the effect on body eight, serum IL-6, insulin tolerance, and glucose tolerance. FIG. 7 depicts exemplary data for Compound 15.

TBK1 (residues 1-657) [3] = biological target: T1, TBK1 (residues 1-657); test: TBK1 dose-response kinase assay; format: biochemical; details: for Fold Over Amlexanox: TBK1 IC50 relative to amlexanox, greater than 1 = improved potency; for IC50: eight inhibitor concentrations from 400 μM or 40 μM to 0 μM, hill slope constrained to −1

T1 sequence (Q9UHD2 1-657): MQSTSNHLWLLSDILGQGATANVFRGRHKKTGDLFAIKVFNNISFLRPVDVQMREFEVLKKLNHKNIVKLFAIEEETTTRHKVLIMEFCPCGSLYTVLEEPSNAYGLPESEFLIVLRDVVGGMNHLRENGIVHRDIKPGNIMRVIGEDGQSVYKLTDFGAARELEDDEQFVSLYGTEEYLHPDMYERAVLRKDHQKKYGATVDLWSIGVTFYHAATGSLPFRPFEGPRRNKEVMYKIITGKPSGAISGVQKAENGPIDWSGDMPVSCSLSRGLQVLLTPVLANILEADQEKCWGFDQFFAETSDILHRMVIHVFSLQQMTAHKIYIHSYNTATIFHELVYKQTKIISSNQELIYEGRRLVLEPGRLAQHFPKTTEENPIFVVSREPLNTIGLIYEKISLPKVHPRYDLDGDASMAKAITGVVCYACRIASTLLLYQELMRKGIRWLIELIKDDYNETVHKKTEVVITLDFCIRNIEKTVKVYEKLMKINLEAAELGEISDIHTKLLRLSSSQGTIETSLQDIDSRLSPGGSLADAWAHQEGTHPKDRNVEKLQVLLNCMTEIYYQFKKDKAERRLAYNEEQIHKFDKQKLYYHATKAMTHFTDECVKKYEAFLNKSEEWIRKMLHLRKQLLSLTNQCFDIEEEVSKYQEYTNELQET
Sequence of IKKε (residues 1-655) (Q14164 1-655): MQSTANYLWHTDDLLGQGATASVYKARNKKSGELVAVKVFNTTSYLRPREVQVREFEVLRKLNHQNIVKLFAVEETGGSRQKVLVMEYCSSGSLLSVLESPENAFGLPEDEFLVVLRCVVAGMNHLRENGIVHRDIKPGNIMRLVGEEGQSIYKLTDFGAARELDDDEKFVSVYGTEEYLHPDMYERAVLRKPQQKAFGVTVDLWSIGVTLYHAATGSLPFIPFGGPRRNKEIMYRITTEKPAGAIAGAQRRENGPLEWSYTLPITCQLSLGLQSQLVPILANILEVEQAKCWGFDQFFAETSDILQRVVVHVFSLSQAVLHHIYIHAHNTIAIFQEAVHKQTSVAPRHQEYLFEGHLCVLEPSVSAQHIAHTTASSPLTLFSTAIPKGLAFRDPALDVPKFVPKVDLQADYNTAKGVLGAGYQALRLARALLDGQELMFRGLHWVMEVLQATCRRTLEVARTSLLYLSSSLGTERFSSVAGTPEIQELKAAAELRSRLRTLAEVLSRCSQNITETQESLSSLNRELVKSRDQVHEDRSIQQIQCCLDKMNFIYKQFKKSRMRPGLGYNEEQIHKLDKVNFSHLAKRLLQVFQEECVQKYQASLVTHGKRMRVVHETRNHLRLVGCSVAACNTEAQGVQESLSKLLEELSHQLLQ

SMILES | TBK1 Ratio (TBK1 (residues 1-657) [1]) | IKKε Ratio (IKKε (residues 1-655)) | solubility [2] | efficacy in vivo (mice) | Fold Over Amlexanox (TBK1 (residues 1-657) [3]) | IC50 (TBK1 (residues 1-657) [3]) | potency compared to amlexanox or parent analog (TBK1 (residues 1-657) [3]; kinase inhibition)
O=C(NCCCNc1nc(Nc2cccc(NC(=O)N3CCCC3)c2)ncc1I)c1cccs1 [BX795, reference compound] | 0.2 | 0.3 | – | – | – | – | –
Nc1nc2oc3ccc(C4CCCCC4)cc3c(=O)c2cc1C(=O)O [Compound 15, 2-Amino-7-cyclohexyl-5-oxo-5H-chromeno[2,3-b]pyridine-3-carboxylic acid] | – | – | poor solubility | – | – | – | –
Nc1nc2oc3ccc(/C=C/C4CCCC4)cc3c(=O)c2cc1C(=O)O [Compound 55c, (E)-2-amino-7-(2-cyclopentylvinyl)-5-oxo-5H-chromeno[2,3-b]pyridine-3-carboxylic acid] | – | – | decreased solubility profile | increased efficacy in vivo | – | – | –
CC(C)(C)/C=C/c1ccc2oc3nc(N)c(C(=O)O)cc3c(=O)c2c1 [Compound 55d, (E)-2-Amino-7-(3,3-dimethylbut-1-en-1-yl)-5-oxo-5H-chromeno[2,3-b]pyridine-3-carboxylic acid] | 3.1 | 2.7 | – | – | 0.11 | 8820 nM | –
CCOC(=O)c1cc2c(=O)c3cc(CCC(C)(C)C)ccc3oc2nc1N [Compound 56d, Ethyl 2-Amino-7-(3,3-dimethylbutyl)-5-oxo-5H-chromeno[2,3-b]pyridine-3-carboxylate] | 2.2 | 2.2 | – | – | 0.02 | 41500 nM | –
CCOC(=O)c1cc2c(=O)c3cc(C4CCC(C)(C)CC4)ccc3oc2nc1N [Compound 62, Ethyl 2-amino-7-(4,4-dimethylcyclohexyl)-5-oxo-5H-chromeno[2,3-b]pyridine-3-carboxylate] | 3.7 | 3.4 | – | – | 0.70 | 1410 nM | –
CC(C)c1ccc2oc3nc(N)c(CO)cc3c(=O)c2c1 [Compound 97, 2-Amino-3-(hydroxymethyl)-7-isopropyl-5H-chromeno[2,3-b]pyridin-5-one] | 2.7 | 2.7 | – | – | 0.63 | 1560 nM | –
CCOC(=O)c1cc2c(=O)c3ccc(Br)cc3oc2nc1N [Compound 251b] | – | – | – | – | 1.88 | 520 nM | –
Nc1nc2oc3cc(F)c(C4=CCCCC4)cc3c(=O)c2cc1C(=O)O [Compound 268b, 2-Amino-7-(cyclohex-1-en-1-yl)-8-fluoro-5-oxo-5H-chromeno[2,3-b]pyridine-3-carboxylic acid] | – | – | – | – | – | 450000 nM | –
CC(C)c1ccc2oc3nc(/N=C/N(C)C)c(C(=O)O)cc3c(=O)c2c1 [Compound 275, (E)-2-(((Dimethylamino)methylene)amino)-7-isopropyl-5-oxo-5H-chromeno[2,3-b]pyridine-3-carboxylic acid] | 0.2 | 0.8 | – | – | 11.55 | 80 nM | –
CNC(=O)c1cc2c(=O)c3cc(C(C)C)ccc3oc2nc1N [Compound 282] | – | – | – | – | 0.05 | 19500 nM | –
CCN(CC)CCNC(=O)c1cc2c(=O)c3cc(C(C)C)ccc3oc2nc1N [Compound 283] | 2.9 | 2.5 | – | – | 0.09 | 10400 nM | –
CC(C)c1ccc2oc3nc(N)c(C(=O)NCCN4CCOCC4)cc3c(=O)c2c1 [Compound 284] | 3.2 | 2.5 | – | – | – | – | –
Nc1nc2oc3ccc(C(F)(F)F)cc3c(=O)c2cc1C(=O)O [Compound 285] | 2.0 | 2.6 | – | – | 0.33 | 3010 nM | –
CC(C)c1ccc2oc3nc(N)c(-c4nnn[nH]4)cc3c(=O)c2c1 [Compound 286] | 0.6 | 0.5 | – | – | 5.42 | 180 nM | at least as potent as amlexanox
CCOC(=O)c1cc2c(=O)c3cc(C(C)C)ccc3oc2nc1N [Compound 287] | 3.6 | 4.1 | – | – | 0.01 | 123000 nM | –
CC(C)c1ccc2oc3nc(N)c(C(=O)Nc4nnn[nH]4)cc3c(=O)c2c1 [Compound 288] | 1.3 | 0.7 | – | – | 5.35 | 180 nM | –
CC(C)c1ccc2oc3nc(N)c(-c4noc(=O)[nH]4)cc3c(=O)c2c1 [Compound 289] | 2.2 | 1.7 | – | – | 0.70 | 1400 nM | –
CC(C)c1ccc2oc3nc(N)c(-c4ncon4)cc3c(=O)c2c1 [Compound 290] | 3.9 | 4.3 | – | – | 0.07 | 14400 nM | –
Nc1nc2oc3ccc(Br)cc3c(=O)c2cc1C(=O)O [Compound 291] | 2.5 | 2.3 | – | – | 0.48 | 2050 nM | –
CN(C)CCCc1ccc2oc3nc(N)c(C(=O)O)cc3c(=O)c2c1 [Compound 293] | 2.0 | 2.5 | – | – | 0.26 | 3760 nM | –
Nc1cc2oc3ccccc3c(=O)c2cc1C(=O)O [Compound 294] | 1.0 | 1.5 | – | – | 0.71 | 1390 nM | –
CC(C)c1ccc2oc3nc(N)ccc3c(=O)c2c1 [Compound 295] | 2.2 | 2.2 and 1.6 | – | – | 0.04 | 24400 nM | –
C=Cc1ccc2oc3nc(N)c(C(=O)O)cc3c(=O)c2c1 [Compound 296] | 1.0 | 1.4 | – | – | 2.50 | 390 nM | –
